Legend:
Assay type in all cases: in vivo, mouse
CD-1 male mice [1] = assay: Visual object response test; details: AM 251 6 mg/kg i.p. 20 min before MAM-2201 6 mg/kg
Experimental: For the overall study 234 mice were used. In sensorimotor (visual object, visual placing, acoustic, and overall tactile responses) tests for MAM-2201, experiments for each treatment dose (vehicle or 5 different MAM-2201 doses, 0.01, 0.1, 1, 3, and 6 mg/kg) used 8 mice (total mice used: 48) and for MAM-2201 with AM-251 pretreatment, experiments for each dose regimen (vehicle + AM-251 or MAM-2201 + AM-251, 6 mg/kg) used 16 mice. In the analysis of spontaneous locomotion (open field test) for MAM-2201, experiments for each treatment regimen (vehicle or 4 different MAM-2201 doses, 0.01, 0.1, 1, and 6 mg/kg) used 10 mice (total mice used: 50). In the PPI test for MAM-2201, experiments for each treatment (vehicle or 3 different MAM-2201 doses, 0.01, 0.1, and 1 mg/kg) used 10 mice (total mice used: 40), while for MAM-2201 experiments in the Novel Object Recognition (NOR) test for each treatment regimen (vehicle or 3 different MAM-2201 and vehicle or 3 different AM-2201 doses, 0.01, 0.1, and 1 mg/kg) used 10 mice (total mice used: 80). In the present study the effect of MAM-2201 on sensorimotor responses was investigated using a battery of behavioral tests widely used in studies of “safety-pharmacology,” that we routinely adopted in our laboratory, for the preclinical characterization of new molecules in rodents (Ossato et al. [2015]; Vigolo et al. [2015]; Bilel et al. [2020]). The voluntary and involuntary motor responses of the animal to different visual, acoustic, and tactile stimuli were evaluated according to the procedure described in our previous studies (Ossato et al. [2015]; Bilel et al. [2020]). To reduce the number of animals used, mice were evaluated in functional observational tests carried out in a consecutive manner according to the following time scheme: observation of visual object responses (frontal and lateral view), acoustic response, tactile response (vibrissae, corneal and pinnae reflexes), and visual placing response. Sensorimotor tests were measured at 10, 30, 60, 120, 180, 240, and 300 min after injections for the evaluation of the visual object, acoustic and the tactile response, and at 15, 45, 75, 135, 195, 255, and 315 min after injections for the evaluation of visual placing response. Behavioral tests were conducted in a thermostated (temperature: 20–22 °C, humidity: 45–55%) and light (150 lx) controlled room with a background noise of 40 ± 4 dB. The apparatus for the visual object, acoustic and tactile sensorimotor tests consisted of an experimental chamber (350 × 350 × 350 mm) with black methacrylate walls and a transparent front door. During the week before the experiment, each mouse was placed in the box and handled (once a day) on every other day, i.e., 3 times, to get used to both the environment and the experimenter. To avoid olfactory cues, cages were carefully cleaned with a dilute (5%) ethanol solution and rinsed with water. All experiments were performed between 8:30 AM and 2:00 PM and conducted by trained observers working in pairs who were blinded to the treatment being tested (Ossato et al. [2015]). The behavior of mice was videotaped by a camera (B/W USB Camera day & night with varifocal lens; Ugo Basile, Italy) placed at the top or on one side of the box and analyzed off-line by a different trained operator. Spontaneous locomotion studies were conducted in a separate set of animals through ANYMAZE test. Sensory gating was evaluated by analysis of the pre-pulse inhibition (PPI) of the acoustic startle reflex as previously described (Bilel et al. [2020]).
Visual object response test was used to evaluate the ability of the mouse to see an object approaching from the front (frontal view) or the side (lateral view) that typically induces the animal to shift or turn the head, bring the forelimbs in the position of “defense” or retreat from it. For the frontal visual response, a white horizontal bar was moved frontally to the mouse head and the maneuver was repeated 3 times. […]

CD-1 male mice [2] = assay: Overall tactile response (vibrissae, corneal, pinnae reflexes); details: AM 251 6 mg/kg i.p. before MAM-2201 6 mg/kg
Experimental: For the overall study 234 mice were used. In sensorimotor (visual object, visual placing, acoustic, and overall tactile responses) tests for MAM-2201, experiments for each treatment dose (vehicle or 5 different MAM-2201 doses, 0.01, 0.1, 1, 3, and 6 mg/kg) used 8 mice (total mice used: 48) and for MAM-2201 with AM-251 pretreatment, experiments for each dose regimen (vehicle + AM-251 or MAM-2201 + AM-251, 6 mg/kg) used 16 mice. In the analysis of spontaneous locomotion (open field test) for MAM-2201, experiments for each treatment regimen (vehicle or 4 different MAM-2201 doses, 0.01, 0.1, 1, and 6 mg/kg) used 10 mice (total mice used: 50). In the PPI test for MAM-2201, experiments for each treatment (vehicle or 3 different MAM-2201 doses, 0.01, 0.1, and 1 mg/kg) used 10 mice (total mice used: 40), while for MAM-2201 experiments in the Novel Object Recognition (NOR) test for each treatment regimen (vehicle or 3 different MAM-2201 and vehicle or 3 different AM-2201 doses, 0.01, 0.1, and 1 mg/kg) used 10 mice (total mice used: 80). In the present study the effect of MAM-2201 on sensorimotor responses was investigated using a battery of behavioral tests widely used in studies of “safety-pharmacology,” that we routinely adopted in our laboratory, for the preclinical characterization of new molecules in rodents (Ossato et al. [2015]; Vigolo et al. [2015]; Bilel et al. [2020]). The voluntary and involuntary motor responses of the animal to different visual, acoustic, and tactile stimuli were evaluated according to the procedure described in our previous studies (Ossato et al. [2015]; Bilel et al. [2020]). To reduce the number of animals used, mice were evaluated in functional observational tests carried out in a consecutive manner according to the following time scheme: observation of visual object responses (frontal and lateral view), acoustic response, tactile response (vibrissae, corneal and pinnae reflexes), and visual placing response. Sensorimotor tests were measured at 10, 30, 60, 120, 180, 240, and 300 min after injections for the evaluation of the visual object, acoustic and the tactile response, and at 15, 45, 75, 135, 195, 255, and 315 min after injections for the evaluation of visual placing response. Behavioral tests were conducted in a thermostated (temperature: 20–22 °C, humidity: 45–55%) and light (150 lx) controlled room with a background noise of 40 ± 4 dB. […] The behavior of mice was videotaped by a camera (B/W USB Camera day & night with varifocal lens; Ugo Basile, Italy) placed at the top or on one side of the box and analyzed off-line by a different trained operator. […] Sensory gating was evaluated by analysis of the pre-pulse inhibition (PPI) of the acoustic startle reflex as previously described (Bilel et al. [2020]). […]

CD-1 male mice [3] = assay: Visual placing response test; details: AM 251 6 mg/kg i.p. before MAM-2201 6 mg/kg
Experimental: For the overall study 234 mice were used. In sensorimotor (visual object, visual placing, acoustic, and overall tactile responses) tests for MAM-2201, experiments for each treatment dose (vehicle or 5 different MAM-2201 doses, 0.01, 0.1, 1, 3, and 6 mg/kg) used 8 mice (total mice used: 48) and for MAM-2201 with AM-251 pretreatment, experiments for each dose regimen (vehicle + AM-251 or MAM-2201 + AM-251, 6 mg/kg) used 16 mice. In the analysis of spontaneous locomotion (open field test) for MAM-2201, experiments for each treatment regimen (vehicle or 4 different MAM-2201 doses, 0.01, 0.1, 1, and 6 mg/kg) used 10 mice (total mice used: 50). In the PPI test for MAM-2201, experiments for each treatment (vehicle or 3 different MAM-2201 doses, 0.01, 0.1, and 1 mg/kg) used 10 mice (total mice used: 40), while for MAM-2201 experiments in the Novel Object Recognition (NOR) test for each treatment regimen (vehicle or 3 different MAM-2201 and vehicle or 3 different AM-2201 doses, 0.01, 0.1, and 1 mg/kg) used 10 mice (total mice used: 80). […] The voluntary and involuntary motor responses of the animal to different visual, acoustic, and tactile stimuli were evaluated according to the procedure described in our previous studies (Ossato et al. [2015]; Bilel et al. [2020]). To reduce the number of animals used, mice were evaluated in functional observational tests carried out in a consecutive manner according to the following time scheme: observation of visual object responses (frontal and lateral view), acoustic response, tactile response (vibrissae, corneal and pinnae reflexes), and visual placing response. Sensorimotor tests were measured at 10, 30, 60, 120, 180, 240, and 300 min after injections for the evaluation of the visual object, acoustic and the tactile response, and at 15, 45, 75, 135, 195, 255, and 315 min after injections for the evaluation of visual placing response. […] Sensory gating was evaluated by analysis of the pre-pulse inhibition (PPI) of the acoustic startle reflex as previously described (Bilel et al. [2020]). […]

CD-1 male mice [4] = assay: Acoustic response test; details: AM 251 6 mg/kg i.p. before MAM-2201 6 mg/kg
Experimental: For the overall study 234 mice were used. In sensorimotor (visual object, visual placing, acoustic, and overall tactile responses) tests for MAM-2201, experiments for each treatment dose (vehicle or 5 different MAM-2201 doses, 0.01, 0.1, 1, 3, and 6 mg/kg) used 8 mice (total mice used: 48) and for MAM-2201 with AM-251 pretreatment, experiments for each dose regimen (vehicle + AM-251 or MAM-2201 + AM-251, 6 mg/kg) used 16 mice. In the analysis of spontaneous locomotion (open field test) for MAM-2201, experiments for each treatment regimen (vehicle or 4 different MAM-2201 doses, 0.01, 0.1, 1, and 6 mg/kg) used 10 mice (total mice used: 50). In the PPI test for MAM-2201, experiments for each treatment (vehicle or 3 different MAM-2201 doses, 0.01, 0.1, and 1 mg/kg) used 10 mice (total mice used: 40), while for MAM-2201 experiments in the Novel Object Recognition (NOR) test for each treatment regimen (vehicle or 3 different MAM-2201 and vehicle or 3 different AM-2201 doses, 0.01, 0.1, and 1 mg/kg) used 10 mice (total mice used: 80). In the present study the effect of MAM-2201 on sensorimotor responses was investigated using a battery of behavioral tests widely used in studies of “safety-pharmacology,” that we routinely adopted in our laboratory, for the preclinical characterization of new molecules in rodents (Ossato et al. [2015]; Vigolo et al. [2015]; Bilel et al. [2020]). The voluntary and involuntary motor responses of the animal to different visual, acoustic, and tactile stimuli were evaluated according to the procedure described in our previous studies (Ossato et al. [2015]; Bilel et al. [2020]). To reduce the number of animals used, mice were evaluated in functional observational tests carried out in a consecutive manner according to the following time scheme: observation of visual object responses (frontal and lateral view), acoustic response, tactile response (vibrissae, corneal and pinnae reflexes), and visual placing response. Sensorimotor tests were measured at 10, 30, 60, 120, 180, 240, and 300 min after injections for the evaluation of the visual object, acoustic and the tactile response, and at 15, 45, 75, 135, 195, 255, and 315 min after injections for the evaluation of visual placing response. Behavioral tests were conducted in a thermostated (temperature: 20–22 °C, humidity: 45–55%) and light (150 lx) controlled room with a background noise of 40 ± 4 dB. The apparatus for the visual object, acoustic and tactile sensorimotor tests consisted of an experimental chamber (350 × 350 × 350 mm) with black methacrylate walls and a transparent front door. During the week before the experiment, each mouse was placed in the box and handled (once a day) on every other day, i.e., 3 times, to get used to both the environment and the experimenter. To avoid olfactory cues, cages were carefully cleaned with a dilute (5%) ethanol solution and rinsed with water. All experiments were performed between 8:30 AM and 2:00 PM and conducted by trained observers working in pairs who were blinded to the treatment being tested (Ossato et al. [2015]). The behavior of mice was videotaped by a camera (B/W USB Camera day & night with varifocal lens; Ugo Basile, Italy) placed at the top or on one side of the box and analyzed off-line by a different trained operator. […] Sensory gating was evaluated by analysis of the pre-pulse inhibition (PPI) of the acoustic startle reflex as previously described (Bilel et al. [2020]). […]

With `Cc1c(C(=O)NN2CCCCC2)nn(-c2ccc(Cl)cc2Cl)c1-c1ccc(I)cc1` [AM 251, 1-(2,4-Dichlorophenyl)-5-(4-iodophenyl)-4-methyl-N-(piperidin-1-yl)-1H-pyrazole-3-carboxamide, reference compound] the “effect of pre-treatment on MAM-2201-induced inhibition of visual object response” value (CD-1 male mice [1]) was “significantly prevented”, the “effect of pre-treatment on MAM-2201-induced inhibition of overall tactile response” value (CD-1 male mice [2]) was “prevented” and the “effect of pre-treatment on MAM-2201-induced inhibition of visual placing response” value (CD-1 male mice [3]) was “prevented”. The “effect of pre-treatment on MAM-2201-induced inhibition of acoustic response” value (CD-1 male mice [4]) was “prevented”.

Reference: article PMC10272271, “MAM-2201 acute administration impairs motor, sensorimotor, prepulse inhibition, and memory functions in mice: a comparison with its analogue AM-2201” (Psychopharmacology, 2023)
